In patent US6677355B1, “Hydroxamic acid compounds useful as matrix metalloproteinase inhibitors” (Warner-Lambert Company, priority 1999, dated 2004):

How the values were obtained:
[1] = target: T1, MMP-14CD (membrane-type MMP-1 catalytic domain) (Homo sapiens, UniProt P50281); test: MMP-14CD inhibition, thiopeptolide substrate hydrolysis; assay type: biochemical; conditions: average where multiple samples assayed
T1 construct: MMP-14CD (membrane-type MMP-1 catalytic domain)
Experimental: (§1) The compounds were evaluated in order to determine their respective IC50 values, i.e., the micromolar concentration of compound required to achieve a 50% inhibition of the hydrolytic activity of the respective enzymes.
(§2) Experiments were carried out with the full-length (“FL”) and/or catalytic domains (“CD”) of the proteinases. […] IC50 values were determined using a thiopeptolide substrate, Ac-Pro-Leu-Gly-thioester-Leu-Leu-Gly-OEt (Ye Q.-Z., Johnson L. L., Hupe D. J., and Baragi V., “Purification and Characterization of the Human Stromelysin Catalytic Domain Expressed in Escherichia coli,” Biochemistry, 1992;31:11231-11235; Ye Q.-Z., Johnson L. L., Yu A. E., and Hupe D., “Reconstructed 19 kDa Catalytic Domain of Gelatinase A IAAP,” Biochemistry, 1995;34:4702-4708.)
(§3) The tested MMPs are available to those skilled in the art. For example, MMP-1 can be obtained from Washington University School of Medicine, St. Louis, Mo. MMP-7 can be obtained in accordance with the known procedure set forth by Ye Q. Z., Johnson L. L., and Baragi V., “Gene Syntheses and Expression in E. coli for PUMP, a Human Matrix Metalloproteinase,” Biochem. and Biophys. Res. Comm., 1992;186:143-149. MMP-13 can be obtained in accordance with the known procedure set forth by Freije J. M. P. et al., “Molecular Cloning and Expression of Collagenase-3, a Novel Human Matrix Metalloproteinase Produced by Breast Carcinomas,” J. Bio. Chem., 1994;269:16766-16773. MMP-13CD can also be expressed from a synthetic gene and purified from Escherichia coli cell culture according to a previously described method (Ye Q.-Z., Johnson L. L., and Baragi V., “Gene Synthesis and Expression in E. coli for PUMP, a Human Matrix Metalloproteinase,” Biochemical and Biophysical Research Communications, 1992;186:143-149). Hydrolysis of the thiopeptolide substrate Ac-Pro-Leu-Gly-thioester-Leu-Leu-Gly-OEt (Bachem) was used as the primary screen to determine IC50 values for MMP inhibitors. A 100 μL reaction contains 1 mM 5,5′-dithiobis(2-nitrobenzoic acid) (DTNB), 100 μM substrate, 0.1% BRIJ® 35, PROTEIN GRADE®, Detergent, 10% solution, Sigma, St. Louis, Mo. [polyoxyethyleneglycol dodecyl ether; polyoxyethylene (23) lauryl ether], enzyme, and inhibitor in the appropriate reaction buffer. Activated full-length enzymes are assayed at 5 nM, Stromelysin Catalytic Domain (SCD) at 10 nM, and Gelatinase A Catalytic Domain (GaCD) at 1 nM. Inhibitors are screened from 100 μM to 1 nM. Full-length enzymes (e.g., MMP-1 and MMP-7) are assayed in 50 mM 4-(2-[…])-piperazine-1-ethane sulfonic acid (HEPES), 10 mM CaCl2, pH 7.0; SCD in 50 mM 2-morpholinoethane sulfonic acid monohydrate (MES), 10 mM CaCl2, pH 6.0; and GaCD in 50 mM 3-morpholtriopropane sulfonic acid (MOPS), 10 mM CaCl2, 10 μM ZnCl2, pH 7.0. The change in absorbance at 405 nanometers is monitored on a ThermoMax microplate reader at room temperature continuously for 20 minutes.
(§4) The number in parenthesis indicates the number of samples assayed.

[2] = target: T2, MMP-1FL (collagenase-1 full-length enzyme) (Homo sapiens, UniProt P03956); test: MMP-1FL inhibition, thiopeptolide substrate hydrolysis; assay type: biochemical; conditions: average where multiple samples assayed
T2 construct: purchased Washington University School of Medicine, St. Louis, Mo
T2 sequence (P03956 100-469): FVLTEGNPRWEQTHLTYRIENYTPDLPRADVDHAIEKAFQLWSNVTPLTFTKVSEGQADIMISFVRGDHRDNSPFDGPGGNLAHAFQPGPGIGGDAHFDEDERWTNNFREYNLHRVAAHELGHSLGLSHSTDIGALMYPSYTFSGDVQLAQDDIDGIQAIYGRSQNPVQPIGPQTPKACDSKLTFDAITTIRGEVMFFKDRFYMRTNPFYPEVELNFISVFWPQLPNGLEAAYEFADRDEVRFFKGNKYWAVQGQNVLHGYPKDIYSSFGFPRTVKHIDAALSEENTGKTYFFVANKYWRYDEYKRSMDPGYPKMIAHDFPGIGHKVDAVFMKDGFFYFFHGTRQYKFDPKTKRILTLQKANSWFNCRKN
Experimental: as §1, §2, §3, §4

[3] = target: T3, MMP-2FL (gelatinase A full-length enzyme) (Homo sapiens, UniProt P08253); test: MMP-2FL inhibition, thiopeptolide substrate hydrolysis; assay type: biochemical; conditions: average where multiple samples assayed
T3 sequence (P08253 110-660): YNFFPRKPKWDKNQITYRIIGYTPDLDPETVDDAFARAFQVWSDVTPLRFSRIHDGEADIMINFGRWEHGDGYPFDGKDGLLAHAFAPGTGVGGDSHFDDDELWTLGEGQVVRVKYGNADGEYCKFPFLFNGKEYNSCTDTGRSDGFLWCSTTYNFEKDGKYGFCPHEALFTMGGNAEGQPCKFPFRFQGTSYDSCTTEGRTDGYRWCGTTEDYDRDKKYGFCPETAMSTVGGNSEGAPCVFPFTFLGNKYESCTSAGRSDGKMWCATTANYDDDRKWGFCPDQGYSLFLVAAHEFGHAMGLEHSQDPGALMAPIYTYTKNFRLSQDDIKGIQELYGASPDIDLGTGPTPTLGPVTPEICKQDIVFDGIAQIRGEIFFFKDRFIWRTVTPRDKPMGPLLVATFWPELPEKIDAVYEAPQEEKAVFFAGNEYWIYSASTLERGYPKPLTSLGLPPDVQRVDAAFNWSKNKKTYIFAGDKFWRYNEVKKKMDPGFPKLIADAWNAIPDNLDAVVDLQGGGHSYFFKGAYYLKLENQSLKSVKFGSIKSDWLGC
Experimental: as §1, §2, §3, §4

[4] = target: T4, MMP-3CD (stromelysin-1 catalytic domain) (Homo sapiens, UniProt P08254); test: MMP-3CD inhibition, thiopeptolide substrate hydrolysis; assay type: biochemical; conditions: average where multiple samples assayed
T4 construct: MMP-3CD (stromelysin-1 catalytic domain); made in house; host or cells: Escherichia coli
T4 sequence (P08254 100-272 limits assumed): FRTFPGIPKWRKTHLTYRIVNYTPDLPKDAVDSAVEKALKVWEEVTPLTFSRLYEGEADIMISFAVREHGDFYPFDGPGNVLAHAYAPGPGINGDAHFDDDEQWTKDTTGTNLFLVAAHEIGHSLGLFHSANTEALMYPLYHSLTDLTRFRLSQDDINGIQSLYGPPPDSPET
Experimental: as §1, §2, §3, §4

[5] = target: T5, MMP-7FL (matrilysin full-length enzyme) (Homo sapiens, UniProt P09237); test: MMP-7FL inhibition, thiopeptolide substrate hydrolysis; assay type: biochemical; conditions: average where multiple samples assayed
T5 construct: made in house; host or cells: E. coli
T5 sequence (P09237 95-267): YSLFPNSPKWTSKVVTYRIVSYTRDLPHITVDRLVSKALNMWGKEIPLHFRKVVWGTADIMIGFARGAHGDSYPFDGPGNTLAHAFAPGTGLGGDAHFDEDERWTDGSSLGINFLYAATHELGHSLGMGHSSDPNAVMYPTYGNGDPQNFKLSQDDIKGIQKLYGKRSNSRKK
Experimental: as §1, §2, §3, §4

[6] = target: MMP-2CD (gelatinase A catalytic domain) (Homo sapiens, UniProt P08253); test: MMP-2CD inhibition, thiopeptolide substrate hydrolysis; assay type: biochemical; conditions: average where multiple samples assayed
Sequence of MMP-2CD (gelatinase A catalytic domain) (P08253 with tags, fused parts or gaps DEL220-393): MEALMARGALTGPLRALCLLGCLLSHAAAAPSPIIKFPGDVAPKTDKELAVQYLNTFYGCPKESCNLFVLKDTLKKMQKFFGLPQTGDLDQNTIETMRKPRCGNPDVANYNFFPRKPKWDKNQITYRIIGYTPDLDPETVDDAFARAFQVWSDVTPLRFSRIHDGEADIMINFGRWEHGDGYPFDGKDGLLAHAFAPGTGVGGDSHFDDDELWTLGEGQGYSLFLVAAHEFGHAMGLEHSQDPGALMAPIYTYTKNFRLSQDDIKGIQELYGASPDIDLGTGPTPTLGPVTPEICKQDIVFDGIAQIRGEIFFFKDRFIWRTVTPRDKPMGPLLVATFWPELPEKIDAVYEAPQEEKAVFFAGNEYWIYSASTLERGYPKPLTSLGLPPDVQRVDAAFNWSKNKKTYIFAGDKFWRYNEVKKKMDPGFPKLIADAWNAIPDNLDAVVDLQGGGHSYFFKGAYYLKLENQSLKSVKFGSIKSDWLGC
Experimental: as §1, §2, §3, §4

[7] = target: T6, MMP-13CD (collagenase-3 catalytic domain) (Homo sapiens, UniProt P45452); test: MMP-13CD inhibition, thiopeptolide substrate hydrolysis; assay type: biochemical; conditions: average where multiple samples assayed
T6 construct: MMP-13CD (collagenase-3 catalytic domain); made in house; host or cells: Escherichia coli
Experimental: as §1, §2, §3, §4

[8] = target: MMP-9FL (gelatinase B full-length enzyme) (Homo sapiens, UniProt P14780); test: MMP-9FL inhibition, thiopeptolide substrate hydrolysis; assay type: biochemical; conditions: average where multiple samples assayed
Sequence of MMP-9FL (gelatinase B full-length enzyme) (P14780 107-707 limits assumed, species assumed): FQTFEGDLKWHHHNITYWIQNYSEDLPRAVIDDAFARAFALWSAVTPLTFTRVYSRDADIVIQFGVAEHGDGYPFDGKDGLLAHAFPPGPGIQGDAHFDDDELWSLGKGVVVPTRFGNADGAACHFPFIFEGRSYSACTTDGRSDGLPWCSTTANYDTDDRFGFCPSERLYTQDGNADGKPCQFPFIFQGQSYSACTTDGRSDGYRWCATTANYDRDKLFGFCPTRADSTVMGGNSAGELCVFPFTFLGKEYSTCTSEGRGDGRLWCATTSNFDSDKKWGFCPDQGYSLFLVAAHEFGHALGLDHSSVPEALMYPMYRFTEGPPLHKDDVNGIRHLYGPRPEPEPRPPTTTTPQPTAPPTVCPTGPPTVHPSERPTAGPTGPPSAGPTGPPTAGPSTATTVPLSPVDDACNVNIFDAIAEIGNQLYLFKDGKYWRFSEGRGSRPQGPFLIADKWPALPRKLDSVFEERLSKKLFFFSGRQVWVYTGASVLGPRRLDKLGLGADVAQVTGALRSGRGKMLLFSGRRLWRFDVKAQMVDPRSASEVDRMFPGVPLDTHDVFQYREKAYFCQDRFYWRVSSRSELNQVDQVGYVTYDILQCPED
Experimental: as §1, §2, §3, §4

IC50 [1] | IC50 [2] | IC50 [3] | IC50 [4] | melting point | IC50 [5] | IC50 [6] | IC50 [7] | IC50 [8] | Structure (SMILES)
26.5 nM | 1750 nM | 23 nM | 9.25 nM | 239 to 243 °C | 4.25 µM | 2.7 nM | 230 nM | 3.7 µM | O=C(O)C1(NS(=O)(=O)c2ccc3c(c2)oc2ccccc23)CCCCC1 [Example 27, 1-(Dibenzofuran-3-sulfonylamino)-cyclohexanecarboxylic acid]
3.9 nM | 295 nM | 4.5 nM | 15.5 nM | 184 to 186 °C | 4.05 µM | 1.7 nM | 49 nM | 0.135 µM | O=C(NO)C1(NS(=O)(=O)c2ccc3c(c2)oc2ccccc23)CCCCC1 [Example 28, 1-(Dibenzofuran-3-sulfonylamino)-cyclohexanecarboxylic acid hydroxyamide]
22.5 nM | 8250 nM | 19.8 nM | 8.35 nM | 220 to 224 °C | 34 µM | 2.65 nM | 450 nM | 11.5 µM | CC(C)(NS(=O)(=O)c1ccc2c(c1)oc1ccccc12)C(=O)O [Example 29, 2-(Dibenzofuran-3-sulfonylamino)-2-methyl-propionic acid]
13.5 nM | 905 nM | 4.75 nM | 83.5 nM | 168 to 169 °C | 100 µM | 4.3 nM | 105 nM | 0.86 µM | CC(C)(NS(=O)(=O)c1ccc2c(c1)oc1ccccc12)C(=O)NO [Example 30, 2-(Dibenzofuran-3-sulfonylamino)-N-hydroxy-2-methyl-propionamide]
5.75 nM | 380 nM | 5.25 nM | 14.7 nM | 160 to 162 °C | 3 µM | 2.3 nM | 48 nM | 0.25 µM | O=C(NO)C1(NS(=O)(=O)c2ccc3c(c2)oc2ccccc23)CCOCC1 [Example 31, 4-(Dibenzofuran-3-sulfonylamino)-tetrahydro-pyran-4-carboxylic acid hydroxyamide]
340 nM | 5750 nM | 205 nM | 35 nM |  | 0.35 µM | 82.7 nM | 165 nM | 13 µM | O=C(NO)C1(NS(=O)(=O)c2ccc3oc4cc(Br)ccc4c3c2)CCCC1 [Example 32, 1-(7-Bromo-dibenzofuran-2-sulfonylamino)-cyclopentane carboxylic acid hydroxamide]
300 nM | 3050 nM | 125 nM | 43 nM |  | 0.92 µM | 81 nM | 110 nM | 15 µM | CC(C)(NS(=O)(=O)c1ccc2oc3cc(Cl)ccc3c2c1)C(=O)NO [Example 33, 2-(7-Chloro-dibenzofuran-2 sulfonylamino)-N-hydroxy-2-methyl-propionamide]
